From patent US20240368164A1, “PURINE NUCLEOSIDES, THEIR INTERMEDIATES, AND METHODS OF PREPARATION THEREOF” (Astrocyle Pharmaceuticals, Inc., priority 2021, published 2024)

Columns and labels:
[1] = Plasma protein binding (free fraction); format: in vitro ADME, mouse
Text: Example 3 of U.S. Pat. No. 9,789,131, which is incorporated herein by reference, describes assays for determining the plasma and brain free fraction of certain compounds such as I-1. Compounds described herein may be evaluated using such assays or similar variants thereof.

Human A3R = molecular target: T1, Human A3R (Homo sapiens, UniProt P0DMS8); assay: Radioligand binding at human A3 adenosine receptor ([125I]I-AB-MECA, CHO cell membranes); conditions: n = 1; read-out: Affinity (nM) at Human A3R
T1 construct: expressed in transfected cells
T1 sequence (P0DMS8 1-318): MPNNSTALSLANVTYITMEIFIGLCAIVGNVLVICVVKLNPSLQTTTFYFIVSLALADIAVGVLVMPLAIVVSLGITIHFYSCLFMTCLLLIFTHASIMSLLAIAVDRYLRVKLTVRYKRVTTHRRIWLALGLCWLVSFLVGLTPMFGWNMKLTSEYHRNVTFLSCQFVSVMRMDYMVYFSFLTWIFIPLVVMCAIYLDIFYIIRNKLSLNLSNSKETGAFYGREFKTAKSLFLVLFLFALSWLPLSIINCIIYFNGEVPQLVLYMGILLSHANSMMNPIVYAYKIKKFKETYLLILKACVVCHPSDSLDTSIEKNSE
Experimental: [3H]R—N^6-Phenylisopropyladenosine ([3H]R-PIA, 63 Ci/mmol), [^3H](2-[p-(2-carboxyethyl)phenyl-ethylamino]-5′-N-ethylcarboxamido-adenosine) ([^3H]CGS21680, 40.5 Ci/mmol) and [^125I]N^6-(4-amino-3-iodobenzyl)adenosine-5′-N-methyluronamide ([^125I]I-AB-MECA, 2200 Ci/mmol) were purchased from Perkin-Elmer Life and Analytical Science (Boston, MA). Test compounds were prepared as 5 mM stock solutions in DMSO and stored frozen.
Cell Culture and Membrane Preparation—CHO cells stably expressing the recombinant hA1 and hA3ARs and HEK293 cells stably expressing the hA2AAR were cultured in Dulbecco's modified Eagle medium (DMEM) and F12 (1:1) supplemented with 10% fetal bovine serum, 100 units/mL penicillin, 100 μg/mL streptomycin, and 2 μmol/mL glutamine. In addition, 800 μg/mL geneticin was added to the A2A media, while 500 μg/mL hygromycin was added to the A1 and A3 media. After harvesting, cells were homogenized and suspended in PBS. Cells were then centrifuged at 240 g for 5 min, and the pellet was resuspended in 50 mM Tris-HCl buffer (pH 7.5) containing 10 mM MgCl2. The suspension was homogenized and was then ultra-centrifuged at 14,330 g for 30 min at 4° C. The resultant pellets were resuspended in Tris buffer, incubated with adenosine deaminase (3 units/mL) for 30 min at 37° C. The suspension was homogenized with an electric homogenizer for 10 sec, pipetted into 1 mL vials and then stored at −80° C. until the binding experiments. The protein concentration was measured using the BCA Protein Assay Kit from Pierce Biotechnology, Inc. (Rockford, IL).
Binding assays: Into each tube in the binding assay was added 50 μL of increasing concentrations of the test ligand in Tris-HCl buffer (50 mM, pH 7.5) containing 10 mM MgCl2, 50 μL of the appropriate agonist radioligand, and finally 100 μL of membrane suspension. For the A1AR (22 μg of protein/tube) the radioligand used was [^3H]R-PIA (final concentration of 3.5 nM). For the A2AAR (20 μg/tube) the radioligand used was [^3H]CGS21680 (10 nM). For the A3AR ([…]) the radioligand used was [^125I]I-AB-MECA (0.34 nM). Nonspecific binding was determined using a final concentration of 10 μM NECA diluted with the buffer. The mixtures were incubated at 25° C. for 60 min in a shaking water bath. Binding reactions were terminated by filtration through Brandel GF/B filters under a reduced pressure using a M-24 cell harvester (Brandel, Gaithersburg, MD). Filters were washed three times with 3 mL of 50 mM ice-cold Tris-HCl buffer (pH 7.5). Filters for A1 and A2AAR binding were placed in scintillation vials containing 5 mL of Hydrofluor scintillation buffer and counted using a Perkin Elmer Liquid Scintillation Analyzer (Tri-Carb 2810TR). Filters for A3AR binding were counted using a Packard Cobra II T-counter. The Ki values were determined using GraphPad Prism for all assays.
A3R binding of selected compounds. Using methods described herein, the affinity of selected compounds at the A3 receptor was measured.

[2] = test system: traumatic brain injury (TBI) in mice; assay: Mouse traumatic brain injury (TBI) model; format: in vivo
Experimental: Animals and traumatic brain injury (TBI): TBI is performed with a controlled closed skull injury model as described in Talley-Watts et al. 2012 (J. Neurotrauma 30, 55-66). Following the method described therein, a pneumatic impact device is used to generate a moderate TBI leaving the skull and dura matter intact. To achieve this, C57BL/6 mice are anesthetized with isoflurane (3% induction, 1% maintenance) in 100% oxygen. A body temperature of 37° C. is maintained using a temperature-controlled heated surgical table. A small midline incision is made on the scalp using aseptic surgical techniques. A 5 mm stainless steel disc is positioned on the skull and fixed using superglue on the right parietal bone between bregma and lamda over the somatosensory cortex. The mouse is then positioned on a stage directly under the pneumatic impact tip. […] Mice are placed in a Thermo-Intensive Care Unit (Braintree Scientific model FV-1; 37° C.; 27% O2) and monitored until fully awake and moving freely. […]
Western Blot Analysis for GFAP: At selected survival times, mice are anesthetized under isoflurane and sacrificed. […] The homogenate is transferred to a 2 mL tube and centrifuged at 1000 g for 10 minutes at 4° C. and the supernatant is collected and analyzed. Protein concentration is determined by the BCA assay using a 1:50 dilution. […]

## CSc1nc(N)c2ncn([C@H]3[C@H](O)[C@H](O)[C@]4(CO)C[C@H]34)c2n1 [Compound I-1, (1R,2R,3S,4R,5S)-4-(6-Amino-2-(methylthio)-9H-purin-9-yl)-1-(hydroxymethyl)bicyclo[3.1.0]hexane-2,3-diol]
[1]
  free (unbound) fraction in plasma: 0.74
Human A3R
  Ki: 1490 nM
[2]
  efficacy in mouse TBI model: significant efficacy
